# Results as given in US9963442B2, “Pyridones as herbicides” (E I DU PONT DE NEMOURS AND COMPANY, priority 2014, dated 2018).
# Key:
# Type in all cases: in vivo
# [1] = system: blackgrass (Alopecurus myosuroides); assay: Test A postemergence application; conditions: approx. 10 days
# Outline: (§1)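 Visual injury score, 0–100 scale (100 = complete control), versus untreated plants after ~10 days greenhouse. Pre: directed soil spray on seeded loam/sand. Post: 2–10 cm plants, 1–2 leaves. Solvent/surfactant formulation.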
# [2] = system: galium (catchweed bedstraw, Galium aparine); assay: Test A postemergence application; conditions: approx. 10 days
# Outline: as §1
# [3] = system: barnyardgrass (Echinochloa crus-galli); assay: Test A postemergence application; conditions: approx. 10 days
# Outline: as §1
# [4] = system: wheat (Triticum aestivum); assay: Test A postemergence application; conditions: approx. 10 days
# Outline: as §1
# kochia (Kochia scoparia) = assay: Test A postemergence application; conditions: approx. 10 days
# Outline: as §1
# [5] = system: pigweed (Amaranthus retroflexus); assay: Test A postemergence application; conditions: approx. 10 days
# Outline: as §1
# [6] = system: ragweed (common ragweed, Ambrosia elatior); assay: Test A postemergence application; conditions: approx. 10 days
# Outline: as §1
# [7] = system: Italian ryegrass (Lolium multiflorum); assay: Test A postemergence application; conditions: approx. 10 days
# Outline: as §1
# [8] = system: giant foxtail (Setaria faberii); assay: Test A postemergence application; conditions: approx. 10 days
# Outline: as §1
# corn (Zea mays) [9] = assay: Test A postemergence application; conditions: approx. 10 days
# Outline: as §1
# [10] = system: blackgrass (Alopecurus myosuroides); assay: Test C preemergence; conditions: scale 0 to 100, 0 is no effect, 100 is complete control
# Text: (§2) Seeds of plant species selected from blackgrass (Alopecurus myosuroides), Italian ryegrass (Lolium multiflorum), winter wheat (Triticum aestivum), galium (catchweed bedstraw, Galium aparine), corn (Zea mays), large (Lg) crabgrass (Digitaria sanguinalis), giant foxtail (Setaria faberii), johnsongrass (Sorghum halepense), lambsquarters (Chenopodium album), morningglory (Ipomoea coccinea), yellow nutsedge (Cyperus esculentus), pigweed (Amaranthus retroflexus), ragweed (common ragweed, Ambrosia elatior), soybean (Glycine max), barnyardgrass (Echinochloa crus-galli), oilseed rape (Brassica napus), waterhemp (common waterhemp, Amaranthus rudis), and velvetleaf (Abutilon theophrasti) were planted into a blend of loam soil and sand and treated preemergence with test chemicals formulated in a non-phytotoxic solvent mixture which included a surfactant. At the same time, plants selected from these crop and weed species and also chickweed (common chickweed, Stellaria media), kochia (Kochia scoparia), and wild oat (Avena fatua), were planted in pots containing Sunshine Redi-Earth® planting medium comprising spaghnum peat moss, vermiculite, starter nutrients and dolomitic limestone and treated with postemergence applications of test chemicals formulated in the same manner. Plants ranged in height from 2 to 18 cm (1- to 4-leaf stage) for postemergence treatments. Treated plants and controls were maintained in a greenhouse for 13 to 15 days, after which time all species were compared to controls and visually evaluated. Plant response ratings, summarized in Table C, are based on a scale of 0 to 100 where 0 is no effect and 100 is complete control. A dash (-) response means no test result.
# [11] = system: waterhemp (common waterhemp, Amaranthus rudis); assay: Test C preemergence; conditions: scale 0 to 100, 0 is no effect, 100 is complete control
# Text: as §2
# [12] = system: oilseed rape (Brassica napus); assay: Test C preemergence; conditions: scale 0 to 100, 0 is no effect, 100 is complete control
# Text: as §2
# soybean (Glycine max) = assay: Test C preemergence; conditions: scale 0 to 100, 0 is no effect, 100 is complete control
# Text: as §2
# [13] = system: johnsongrass (Sorghum halepense); assay: Test C preemergence; conditions: scale 0 to 100, 0 is no effect, 100 is complete control
# Text: as §2
# [14] = system: lambsquarters (Chenopodium album); assay: Test C preemergence; conditions: scale 0 to 100, 0 is no effect, 100 is complete control
# Text: as §2
# [15] = system: yellow nutsedge (Cyperus esculentus); assay: Test C preemergence; conditions: scale 0 to 100, 0 is no effect, 100 is complete control
# Text: as §2
# [16] = system: pigweed (Amaranthus retroflexus); assay: Test C preemergence; conditions: scale 0 to 100, 0 is no effect, 100 is complete control
# Text: as §2
# [17] = system: morningglory (Ipomoea coccinea); assay: Test C preemergence; conditions: scale 0 to 100, 0 is no effect, 100 is complete control
# Text: as §2
# [18] = system: ragweed (common ragweed, Ambrosia elatior); assay: Test C preemergence; conditions: scale 0 to 100, 0 is no effect, 100 is complete control
# Text: as §2
# [19] = system: Italian ryegrass (Lolium multiflorum); assay: Test C preemergence; conditions: scale 0 to 100, 0 is no effect, 100 is complete control
# Text: as §2
# corn (Zea mays) [20] = assay: Test C preemergence; conditions: scale 0 to 100, 0 is no effect, 100 is complete control
# Text: as §2
smiles,measurement,setting,value
O=c1cccc(Oc2ncc(Cl)cn2)n1-c1ncc(Cl)cn1 [Compound 6],"Plant response rating (0 to 100 scale, 0 no effect, 100 complete control), Blackgrass",[1]; 31 g ai/ha,10
same,"Plant response rating (0 to 100 scale, 0 no effect, 100 complete control), Blackgrass",[1]; 125 g ai/ha,50
same,"Plant response rating (0 to 100 scale, 0 no effect, 100 complete control), Galium",[2]; 31 g ai/ha,60
same,"Plant response rating (0 to 100 scale, 0 no effect, 100 complete control), Galium",[2]; 125 g ai/ha,90
same,"Plant response rating (0 to 100 scale, 0 no effect, 100 complete control), Barnyardgrass",[3]; 31 g ai/ha,10
same,"Plant response rating (0 to 100 scale, 0 no effect, 100 complete control), Barnyardgrass",[3]; 125 g ai/ha,30
same,"Plant response rating (0 to 100 scale, 0 no effect, 100 complete control), Wheat",[4]; 31 g ai/ha,0
same,"Plant response rating (0 to 100 scale, 0 no effect, 100 complete control), Wheat",[4]; 125 g ai/ha,0
same,"Plant response rating (0 to 100 scale, 0 no effect, 100 complete control), Kochia",kochia (Kochia scoparia); 31 g ai/ha,80
same,"Plant response rating (0 to 100 scale, 0 no effect, 100 complete control), Kochia",kochia (Kochia scoparia); 125 g ai/ha,90
same,"Plant response rating (0 to 100 scale, 0 no effect, 100 complete control), Pigweed",[5]; 31 g ai/ha,80
same,"Plant response rating (0 to 100 scale, 0 no effect, 100 complete control), Pigweed",[5]; 125 g ai/ha,90
same,"Plant response rating (0 to 100 scale, 0 no effect, 100 complete control), Ragweed",[6]; 31 g ai/ha,30
same,"Plant response rating (0 to 100 scale, 0 no effect, 100 complete control), Ragweed",[6]; 125 g ai/ha,50
same,"Plant response rating (0 to 100 scale, 0 no effect, 100 complete control), Ryegrass, Italian",[7]; 31 g ai/ha,0
same,"Plant response rating (0 to 100 scale, 0 no effect, 100 complete control), Ryegrass, Italian",[7]; 125 g ai/ha,20
same,"Plant response rating (0 to 100 scale, 0 no effect, 100 complete control), Foxtail, Giant",[8]; 31 g ai/ha,10
same,"Plant response rating (0 to 100 scale, 0 no effect, 100 complete control), Foxtail, Giant",[8]; 125 g ai/ha,60
same,"Plant response rating (0 to 100 scale, 0 no effect, 100 complete control), Corn",corn (Zea mays) [9]; 31 g ai/ha,0
same,"Plant response rating (0 to 100 scale, 0 no effect, 100 complete control), Corn",corn (Zea mays) [9]; 125 g ai/ha,20
same,"Plant response rating, Blackgrass",[10]; 16 g ai/ha,0
same,"Plant response rating, Blackgrass",[10]; 31 g ai/ha,0
same,"Plant response rating, Blackgrass",[10]; 62 g ai/ha,5
same,"Plant response rating, Blackgrass",[10]; 125 g ai/ha,5
same,"Plant response rating, Waterhemp",[11]; 16 g ai/ha,75
same,"Plant response rating, Waterhemp",[11]; 31 g ai/ha,90
same,"Plant response rating, Waterhemp",[11]; 62 g ai/ha,100
same,"Plant response rating, Waterhemp",[11]; 125 g ai/ha,100
same,"Plant response rating, Oilseed Rape",[12]; 16 g ai/ha,30
same,"Plant response rating, Oilseed Rape",[12]; 31 g ai/ha,90
same,"Plant response rating, Oilseed Rape",[12]; 62 g ai/ha,98
same,"Plant response rating, Oilseed Rape",[12]; 125 g ai/ha,98
same,"Plant response rating, Soybean",soybean (Glycine max); 16 g ai/ha,10
same,"Plant response rating, Soybean",soybean (Glycine max); 31 g ai/ha,20
same,"Plant response rating, Soybean",soybean (Glycine max); 125 g ai/ha,75
same,"Plant response rating, Johnsongrass",[13]; 16 g ai/ha,0
same,"Plant response rating, Johnsongrass",[13]; 31 g ai/ha,0
same,"Plant response rating, Johnsongrass",[13]; 62 g ai/ha,5
same,"Plant response rating, Johnsongrass",[13]; 125 g ai/ha,10
same,"Plant response rating, Lambsquarters",[14]; 16 g ai/ha,40
same,"Plant response rating, Lambsquarters",[14]; 31 g ai/ha,30
same,"Plant response rating, Lambsquarters",[14]; 62 g ai/ha,65
same,"Plant response rating, Lambsquarters",[14]; 125 g ai/ha,85
same,"Plant response rating, Nutsedge, Yellow",[15]; 16 g ai/ha,0
same,"Plant response rating, Nutsedge, Yellow",[15]; 31 g ai/ha,0
same,"Plant response rating, Nutsedge, Yellow",[15]; 62 g ai/ha,0
same,"Plant response rating, Nutsedge, Yellow",[15]; 125 g ai/ha,5
same,"Plant response rating, Pigweed",[16]; 16 g ai/ha,55
same,"Plant response rating, Pigweed",[16]; 31 g ai/ha,75
same,"Plant response rating, Pigweed",[16]; 62 g ai/ha,90
same,"Plant response rating, Pigweed",[16]; 125 g ai/ha,100
same,"Plant response rating, Morningglory",[17]; 16 g ai/ha,5
same,"Plant response rating, Morningglory",[17]; 31 g ai/ha,5
same,"Plant response rating, Morningglory",[17]; 62 g ai/ha,20
same,"Plant response rating, Morningglory",[17]; 125 g ai/ha,55
same,"Plant response rating, Ragweed",[18]; 16 g ai/ha,25
same,"Plant response rating, Ragweed",[18]; 31 g ai/ha,25
same,"Plant response rating, Ragweed",[18]; 62 g ai/ha,70
same,"Plant response rating, Ragweed",[18]; 125 g ai/ha,85
same,"Plant response rating, Ryegrass, Italian",[19]; 16 g ai/ha,0
same,"Plant response rating, Ryegrass, Italian",[19]; 31 g ai/ha,5
same,"Plant response rating, Ryegrass, Italian",[19]; 62 g ai/ha,5
same,"Plant response rating, Ryegrass, Italian",[19]; 125 g ai/ha,5
same,"Plant response rating, Corn",corn (Zea mays) [20]; 16 g ai/ha,0
same,"Plant response rating, Corn",corn (Zea mays) [20]; 31 g ai/ha,5
same,"Plant response rating, Corn",corn (Zea mays) [20]; 62 g ai/ha,0
same,"Plant response rating, Corn",corn (Zea mays) [20]; 125 g ai/ha,5
